Where a SMILES comes first, the peptide text is derived from it. The star is where a group is joined. X1 = CN(C)c1ccc2c(-c3ccc(C(=O)*)cc3C(=O)[O-])c3ccc(=[N+](C)C)cc-3oc2c1
What was measured:
[1] = tested on: Detroit 562; assay: WST-8 cell viability assay, Detroit 562; type: cell-based; settings: Detroit 562 (pharynx cancer), different concentrations, 48 hours, FIG. 5
Method: (§1) Human oral squamous cell carcinoma (OSCC) cell lines, Ca922, OSC20, OECM-1, OC3, CGHNC9, HSC3, plus A549, MDA-MB-231, MCF7, Huh7, HeLa-Kyoto, Detroit 562, H520, H2170, and 293T cells were used in this study. Ca922, CGHNC9, MDA-MB-231, MCF7, Huh7, HeLa-Kyoto, Detroit 562, and 293T cells were all cultured in high-glucose Dulbecco's Modified Eagle Medium (DMEM). OSC20 and HSC3 cells were cultured in Dulbecco's Modified of Eagle's Medium/Ham's F-12 50/50 Mix (1:1). OECM-1, A549, H520, and H2170 cells were grown in RPMI-1640 medium. All culture media were supplemented with 10% fetal bovine serum (FBS) and 1% penicillin-streptomycin. OC3 cells were cultured in 1:1 DMEM/KSFM (keratinocyte serum-free medium) with supplied supplement of Bovine pituitary extract (BPE) and epidermal growth factor (EGF) followed by instruction. All the cells in this study were maintained at 37° C. in humidified atmosphere containing 5% CO2.
(§2) WST-8 [2-(2-methoxy-4-nitrophenyl)-3-(4-nitrophenyl)-5-(2,4-disulfophenyl)-2H-tetrazolium, monosodium salt] cell viability assay
(§3) Cells were seeded into 96 well plate and incubated at 37° C. overnight. Endpoint measures of TMR-GBP or drugs were performed by water soluble tetrazolium salt (WST-8)-based colorimetric assay in triplicate which measures the metabolic conversion of WST-8 into formazan by mitochondrial dehydrogenases present in viable cells. The amount of formazan produced is proportional to the number of live cells and is expressed as cellular viability. When time was up, media were removed and supplemented with WST-8 cell viability reagent-contained cell culture medium (1:10) and incubated at 37° C. for 2 hours. Besides, three wells with WST-8-dissolved medium only (without cells) were reserved as a background control. Cell viability was measured at the absorbance of 450/655 nm wavelength by ELISA reader.

[2] = tested on: H520; assay: WST-8 cell viability assay, H520; type: cell-based; settings: H520 (lung cancer), different concentrations, 48 hours, FIG. 5
Method: as §1, §2, §3

[3] = tested on: Caspase-9; assay: Western blotting of Caspase-9; type: cell-based, human; settings: Ca922, 25 μM, FIG. 11B
Method: Protein lysate of Ca922 cells treated with TMR-GBP 25 μM were blotted with antibodies against Caspase-3, Caspase-7, Caspase-9 and Poly (ADP-ribose) polymerase (PARP). Representative blots are shown.
Western Blotting Analysis
Cells were harvested by trypsion or scratch and lysed in RIPA buffer (50 mM Tris-HCl, pH 7.4, 150 mM NaCl, 0.1% SDS, 0.5% Sodium deoxycholate, 1% NP-40) supplemented with 1× protease inhibitor cocktail. Sample was incubated on ice for 30 minutes and scraped every 10 minutes. Centrifuge at 13,000 rpm at 4° C. for 15 minutes, then collect supernatant for analysis. Protein concentration was determined by Bradford assay. First, 5× Bradford assay dye reagent was diluted into […], and mixture with RIPA (as standard) or samples. Concentration was obtained by spectrophotometer measurement. Equal volume of 2× laemmli buffer containing β-ME was added into protein lysate for goal concentration. Protein samples were boiled at 100° C. for 15 minutes and resolved by 10% SDS-PAGE gel or 4%-15% gradient gel. Then, transfer to PVDF membrane by 100V or 110V voltage for 1 hour. […] Washing the membrane three times with 1×PBST for every 5 minutes, protein band was detected by modified ECL (ddH2O, […] Tris pH8.0, 200 μM p-coumaric acid, 1.25 mM luminal, 0.001% H2O2) with ImageQuant LAS 4000 digital imaging system.

[4] = tested on: A549; assay: WST-8 cell viability assay, A549; type: cell-based; settings: A549 (lung cancer), different concentrations, 48 hours, FIG. 3
Method: as §1, §2
(§4) Cells were seeded into 96 well plate and incubated at 37° C. overnight. […] The amount of formazan produced is proportional to the number of live cells and is expressed as cellular viability. […] Cell viability was measured at the absorbance of 450/655 nm wavelength by ELISA reader.

[5] = tested on: H2170; assay: WST-8 cell viability assay, H2170; type: cell-based; settings: H2170 (lung cancer), different concentrations, 48 hours, FIG. 5
Method: as §1, §2, §3

[6] = tested on: OSC20; assay: Time-lapse live cell imaging, OSC20; type: cell-based, human; settings: OSC20, unbound TMR-GBP removed, imaged at 15 minutes interval for 16 hours, FIG. 4
Method: Time-Lapse Live Cell Imaging
In order to monitor cell morphology and the stability of TMR-GBP, cells were incubated in 35 mm dish or 4 well dish at 37° C. overnight. Replaced the culture medium with CO2-independent medium with supplement of 10% fetal bovine serum (FBS) and 1% penicillin-streptomycin, cells were treated with reagent (TMR, GBP, TMR-GBP) for the time according to the experiment and subjected to time-lapse live cell imaging. Cells were maintained on the microscope stage incubator at 37° C. Multiple-positional time-lapse imaging was performed using an automated Leica DMI6000 inverted microscope equipped with an HCX PL FL 20λ/NA0.4 objective and Andor Luca R EMCCD camera. Images of cells were taken at different interval time and analyzed by MetaMorph software.

[7] = tested on: Huh7; assay: WST-8 cell viability assay, Huh7; type: cell-based; settings: Huh7 (liver cancer), different concentrations, 48 hours, FIG. 3
Method: as §1, §2, §4

Q: For `CN(C)c1ccc2c(-c3ccc(C(=O)N[C@@H](CC(N)=O)C(=O)N[C@@H](Cc4ccc(O)cc4)C(=O)N[C@@H](CCCNC(=N)N)C(=O)N[C@@H](Cc4c[nH]c5ccccc45)C(=O)N[C@@H](CCCNC(=N)N)C(=O)N[C@@H](CS)C(=O)N[C@@H](CCCCN)C(=O)N[C@@H](CC(N)=O)C(=O)N[C@@H](CCC(N)=O)C(=O)N[C@@H](CC(N)=O)C(=O)O)cc3C(=O)[O-])c3ccc(=[N+](C)C)cc-3oc2c1` [TMR-GBP] (X1-NYRWRCKNQN-OH; N-terminus and C-terminus assumed), which “cytotoxicity (cell viability)” value [1] is on record?
A: could induce cytotoxicity

Q: And the “cytotoxicity (cell viability)” value [2]?
A: could induce cytotoxicity

Q: What about the “activation of caspase-9” value [3] of the same compound?
A: did not activate

Q: What about the cell viability [4] of the same compound?
A: not markedly affected

Q: What about the “cytotoxicity (cell viability)” value [5] of the same compound?
A: could induce cytotoxicity

Q: And the “cell death by time-lapse microscopy” value [6]?
A: most cells die in 8 hours

Q: What about the cell viability [7] of the same compound?
A: not markedly affected
